In patent publication US20200017913A1, “METHODS AND SYSTEMS FOR PREDICTING TREATMENT RESPONSES IN SUBJECTS” (PRESIDENT AND FELLOWS OF HARVARD COLLEGE, priority 2017, published 2020):

System: pancolitis in Patient #2
Test: Clinical treatment course of Patient #2 with pancolitis
Assay type: in vivo, human
Settings: Patient #2, pancolitis flare, conventional therapies
Protocol: Patient #2 was evaluated by a general intestinal doctor […] to receive treatment for bloody stool. […]
This included a glucocorticoid stress dose and a vancomycin treatment.
At that point, the tissue obtained in the most recent colonoscopic biospy was gene expression (RNA) profiled according to an exemplary methodology of the present disclosure. […] In this case, the drug was indigo, an over the counter supplement, also known as Qing Dai.

Compound	clinical response to treatment
Sc1ncnc2nc[nH]c12 [6-mercaptopurine]	no improvement after 3 months
CO[C@H]1/C=C/O[C@@]2(C)Oc3c(C)c(O)c4c(O)c(c5c(nc6cc(C)ccn65)c4c3C2=O)NC(=O)/C(C)=C\C=C\[C@H](C)[C@H](O)[C@@H](C)[C@@H](O)[C@@H](C)[C@H](OC(C)=O)[C@@H]1C [Rifaximin]	transient improvement for a couple weeks
C=CC[C@@H]1/C=C(\C)C[C@H](C)C[C@H](OC)[C@H]2O[C@@](O)(C(=O)C(=O)N3CCCC[C@H]3C(=O)O[C@H](/C(C)=C/[C@@H]3CC[C@@H](O)[C@H](OC)C3)[C@H](C)[C@@H](O)CC1=O)[C@H](C)C[C@@H]2OC [tacrolimus]	mild improvement but no remission
CN[C@H](CC(C)C)C(=O)N[C@H]1C(=O)N[C@@H](CC(N)=O)C(=O)N[C@H]2C(=O)N[C@H]3C(=O)N[C@H](C(=O)N[C@H](C(=O)O)c4cc(O)cc(O)c4-c4cc3ccc4O)[C@H](O)c3ccc(c(Cl)c3)Oc3cc2cc(c3O[C@@H]2O[C@H](CO)[C@@H](O)[C@H](O)[C@H]2O[C@H]2C[C@](C)(N)[C@H](O)[C@H](C)O2)Oc2ccc(cc2Cl)[C@H]1O [vancomycin]	transient effect that lasted about a week
